Reference: patent publication US6479435B1, “Diaryl ethers and processes for their preparation and herbicidal and desiccant compositions containing them” (ISK Americas Incorporated, priority 1997, dated 2002)

Assays:
Assay type in all cases: in vivo
[1] = tested on: Johnsongrass (Sorghum halepense, SORHA); assay: Pre-emerge greenhouse herbicide test, phytotoxicity rating; conditions: 14 days after application, rating scale 0-100
Method in brief: (§1)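 Seeds sown in sandy loam one day before track-sprayer application of acetone solutions at 125–1000 g ai/ha (187 l/ha), then surface-watered to incorporate and bottom-watered. Injury scored visually at 14 days on a 0–100 scale (0 no damage, 100 complete death).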

[2] = tested on: barnyardgrass (Echinochloa crusgalli, ECHCG); assay: as above; conditions: 14 days after application, rating scale 0-100
Method in brief: as §1

[3] = tested on: common ragweed (Ambrosia artemisiifolia L., AMBEL); assay: as above; conditions: 14 days after application, rating scale 0-100
Method in brief: as §1

[4] = tested on: green foxtail (Setaria viridis, SETVI); assay: as above; conditions: 14 days after application, rating scale 0-100
Method in brief: as §1

[5] = tested on: ivyleaf morningglory (Ipomoea hederacea, IPOHE); assay: as above; conditions: 14 days after application, rating scale 0-100
Method in brief: as §1

[6] = tested on: lambsquarters (Chenopodium album, CHEAL); assay: as above; conditions: 14 days after application, rating scale 0-100
Method in brief: as §1

[7] = tested on: large crabgrass (Digitaria sanguinalis, DIGSA); assay: as above; conditions: 14 days after application, rating scale 0-100
Method in brief: as §1

[8] = tested on: redroot pigweed (Amaranthus retroflexus, AMARE); assay: as above; conditions: 14 days after application, rating scale 0-100
Method in brief: as §1

[9] = tested on: sicklepod (Cassia obtusifolia, CASOB); assay: as above; conditions: 14 days after application, rating scale 0-100
Method in brief: as §1

[10] = tested on: velvetleaf (Abutilon theophrasti, ABUTH); assay: as above; conditions: 14 days after application, rating scale 0-100
Method in brief: as §1

[11] = tested on: field corn (Zea mays L., var. Dekalb 535, CORN); assay: Pre-emerge greenhouse test, crop damage rating; conditions: 14 days after application, rating scale 0-100
Method in brief: as §1

[12] = tested on: upland rice (Oryza sp., var.Tebonnet, RICE); assay: Pre-emerge greenhouse test, crop damage rating; conditions: 14 days after application, rating scale 0-100
Method in brief: as §1

[13] = tested on: soybean (Glycine max L., var. Pella 86, SOY); assay: Pre-emerge greenhouse test, crop damage rating; parameters: key to SOY crop damage rating: 0 = no damage, 100 = complete death of all plants; conditions: 14 days after application, rating scale 0-100
Method in brief: as §1

[14] = tested on: common ragweed (Ambrosia artemisiifolia L., AMBEL); assay: Post-emerge greenhouse herbicide test, phytotoxicity rating; conditions: 14 days after application, scale 0-100
Method in brief: (§2)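 Plants at the 2-3 leaf stage, sown 8-21 days earlier, were track-sprayed post-emergence with compound in acetone plus 0.25% v/v non-ionic surfactant at 63-1000 g ai/ha (187 l/ha). Damage was rated at 14 days on a 0-100 scale (0 none, 100 all plants dead), for both crop injury and weed control.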

[15] = tested on: Johnsongrass (Sorghum halepense, SORHA); assay: as above; conditions: 14 days after application, scale 0-100
Method in brief: as §2

[16] = tested on: barnyardgrass (Echinochloa crusgalli, ECHCG); assay: as above; conditions: 14 days after application, scale 0-100
Method in brief: as §2

[17] = tested on: green foxtail (Setaria viridis, SETVI); assay: as above; conditions: 14 days after application, scale 0-100
Method in brief: as §2

[18] = tested on: ivyleaf morningglory (Ipomoea hederacea, IPOHE); assay: as above; conditions: 14 days after application, scale 0-100
Method in brief: as §2

[19] = tested on: lambsquarters (Chenopodium album, CHEAL); assay: as above; conditions: 14 days after application, scale 0-100
Method in brief: as §2

[20] = tested on: large crabgrass (Digitaria sanguinalis, DIGSA); assay: as above; conditions: 14 days after application, scale 0-100
Method in brief: as §2

[21] = tested on: redroot pigweed (Amaranthus retroflexus, AMARE); assay: as above; conditions: 14 days after application, scale 0-100
Method in brief: as §2

[22] = tested on: velvetleaf (Abutilon theophrasti, ABUTH); assay: as above; conditions: 14 days after application, scale 0-100
Method in brief: as §2

[23] = tested on: field corn (Zea mays L., var. Dekalb 535, CORN); assay: Post-emerge greenhouse test, crop damage rating; conditions: 14 days after application, scale 0-100
Method in brief: as §2

[24] = tested on: upland rice (Oryza sp., var.Tebonnet, RICE); assay: Post-emerge greenhouse test, crop damage rating; conditions: 14 days after application, scale 0-100
Method in brief: as §2

[25] = tested on: soybean (Glycine max L., var. Pella 86, SOY); assay: Post-emerge greenhouse test, crop damage rating; parameters: key to crop damage rating SOY: 0-100 scale: 0 = no damage, 100 = complete death of all plants; conditions: 14 days after application, scale 0-100
Method in brief: as §2

`CS(=O)(=O)c1cccnc1Oc1cc(-n2c(=O)n3n(c2=S)CCCC3)c(F)cc1Cl` [Compound 8-21] was tested, and the SORHA phytotoxicity rating ([1]; Rate 125 g al/ha) was 50, the SORHA phytotoxicity rating ([1]; Rate 500 g al/ha) was 100 and the ECHCG phytotoxicity rating ([2]; Rate 125 g al/ha) was 40. It also gave an ECHCG phytotoxicity rating ([2]; Rate 500 g al/ha) of 90, an AMBEL phytotoxicity rating ([3]; Rate 125 g al/ha) of 70 and an AMBEL phytotoxicity rating ([3]; Rate 500 g al/ha) of 90. The SETVI phytotoxicity rating ([4]; Rate 125 g al/ha) was 99, the SETVI phytotoxicity rating ([4]; Rate 500 g al/ha) was 100 and the IPOHE phytotoxicity rating ([5]; Rate 125 g al/ha) was 90. It also gave an IPOHE phytotoxicity rating ([5]; Rate 500 g al/ha) of 100, a CHEAL phytotoxicity rating ([6]; Rate 125 g al/ha) of 100 and a CHEAL phytotoxicity rating ([6]; Rate 500 g al/ha) of 100. The DIGSA phytotoxicity rating ([7]; Rate 125 g al/ha) was 70, the DIGSA phytotoxicity rating ([7]; Rate 500 g al/ha) was 100 and the AMARE phytotoxicity rating ([8]; Rate 125 g al/ha) was 100. It also gave an AMARE phytotoxicity rating ([8]; Rate 500 g al/ha) of 100, a CASOB phytotoxicity rating ([9]; Rate 125 g al/ha) of 70 and a CASOB phytotoxicity rating ([9]; Rate 500 g al/ha) of 100. For the same molecule, the ABUTH phytotoxicity rating ([10]; Rate 125 g al/ha) was 100, the ABUTH phytotoxicity rating ([10]; Rate 500 g al/ha) was 100 and the “CORN crop damage rating” value ([11]; Rate 125 g al/ha) was 0. For the same molecule, the “CORN crop damage rating” value ([11]; Rate 500 g al/ha) was 10, the “RICE crop damage rating” value ([12]; Rate 125 g al/ha) was 40 and the “RICE crop damage rating” value ([12]; Rate 500 g al/ha) was 95. For the same molecule, the “SOY crop damage rating” value ([13]; Rate 125 g al/ha) was 0, the “SOY crop damage rating” value ([13]; Rate 500 g al/ha) was 80 and the “phytotoxicity rating AMBEL” value ([14]; rate 63 g ai/ha) was 60. For the same molecule, the “phytotoxicity rating AMBEL” value ([14]; rate 500 g ai/ha) was 90, the “phytotoxicity rating SORHA” value ([15]; rate 63 g ai/ha) was 10 and the “phytotoxicity rating SORHA” value ([15]; rate 500 g ai/ha) was 70. For the same molecule, the “phytotoxicity rating ECHCG” value ([16]; rate 63 g ai/ha) was 0, the “phytotoxicity rating ECHCG” value ([16]; rate 500 g ai/ha) was 70 and the “phytotoxicity rating SETVI” value ([17]; rate 63 g ai/ha) was 0. The “phytotoxicity rating SETVI” value ([17]; rate 500 g ai/ha) was 40, the “phytotoxicity rating IPOHE” value ([18]; rate 63 g ai/ha) was 90 and the “phytotoxicity rating IPOHE” value ([18]; rate 500 g ai/ha) was 100. For the same molecule, the “phytotoxicity rating CHEAL” value ([19]; rate 63 g ai/ha) was 99, the “phytotoxicity rating CHEAL” value ([19]; rate 500 g ai/ha) was 100 and the “phytotoxicity rating DIGSA” value ([20]; rate 63 g ai/ha) was 0. The “phytotoxicity rating DIGSA” value ([20]; rate 500 g ai/ha) was 60, the “phytotoxicity rating AMARE” value ([21]; rate 63 g ai/ha) was 100 and the “phytotoxicity rating AMARE” value ([21]; rate 500 g ai/ha) was 100. For the same molecule, the “phytotoxicity rating ABUTH” value ([22]; rate 63 g ai/ha) was 100, the “phytotoxicity rating ABUTH” value ([22]; rate 500 g ai/ha) was 100 and the “crop damage rating CORN” value ([23]; rate 63 g ai/ha) was 10. For the same molecule, the “crop damage rating CORN” value ([23]; rate 500 g ai/ha) was 0, the “crop damage rating RICE” value ([24]; rate 63 g ai/ha) was 50 and the “crop damage rating RICE” value ([24]; rate 500 g ai/ha) was 60. The “crop damage rating SOY” value ([25]; rate 63 g ai/ha) was 90 and the “crop damage rating SOY” value ([25]; rate 500 g ai/ha) was 100.
`Nc1ccc(Oc2cc(-n3c(=O)n4n(c3=S)CCCC4)c(F)cc2Cl)nc1` [Compound 8-24] gave an SORHA phytotoxicity rating ([1]; Rate 125 g al/ha) of 20, an SORHA phytotoxicity rating ([1]; Rate 500 g al/ha) of 20 and an ECHCG phytotoxicity rating ([2]; Rate 125 g al/ha) of 0. For the same molecule, the ECHCG phytotoxicity rating ([2]; Rate 500 g al/ha) was 40, the AMBEL phytotoxicity rating ([3]; Rate 125 g al/ha) was 80 and the AMBEL phytotoxicity rating ([3]; Rate 500 g al/ha) was 100. It also gave an SETVI phytotoxicity rating ([4]; Rate 125 g al/ha) of 30, an SETVI phytotoxicity rating ([4]; Rate 500 g al/ha) of 80 and an IPOHE phytotoxicity rating ([5]; Rate 125 g al/ha) of 0. For the same molecule, the IPOHE phytotoxicity rating ([5]; Rate 500 g al/ha) was 70, the CHEAL phytotoxicity rating ([6]; Rate 125 g al/ha) was 99 and the CHEAL phytotoxicity rating ([6]; Rate 500 g al/ha) was 100. It also gave a DIGSA phytotoxicity rating ([7]; Rate 125 g al/ha) of 0, a DIGSA phytotoxicity rating ([7]; Rate 500 g al/ha) of 30 and an AMARE phytotoxicity rating ([8]; Rate 125 g al/ha) of 95. It also gave an AMARE phytotoxicity rating ([8]; Rate 500 g al/ha) of 100, a CASOB phytotoxicity rating ([9]; Rate 125 g al/ha) of 70 and a CASOB phytotoxicity rating ([9]; Rate 500 g al/ha) of 50. The ABUTH phytotoxicity rating ([10]; Rate 125 g al/ha) was 100, the ABUTH phytotoxicity rating ([10]; Rate 500 g al/ha) was 100 and the “CORN crop damage rating” value ([11]; Rate 125 g al/ha) was 0. The “CORN crop damage rating” value ([11]; Rate 500 g al/ha) was 0, the “RICE crop damage rating” value ([12]; Rate 125 g al/ha) was 0 and the “RICE crop damage rating” value ([12]; Rate 500 g al/ha) was 20. For the same molecule, the “SOY crop damage rating” value ([13]; Rate 125 g al/ha) was 0, the “SOY crop damage rating” value ([13]; Rate 500 g al/ha) was 30 and the “phytotoxicity rating AMBEL” value ([14]; rate 63 g ai/ha) was 0. The “phytotoxicity rating AMBEL” value ([14]; rate 500 g ai/ha) was 50, the “phytotoxicity rating SORHA” value ([15]; rate 63 g ai/ha) was 0 and the “phytotoxicity rating SORHA” value ([15]; rate 500 g ai/ha) was 50. For the same molecule, the “phytotoxicity rating ECHCG” value ([16]; rate 63 g ai/ha) was 10, the “phytotoxicity rating ECHCG” value ([16]; rate 500 g ai/ha) was 0 and the “phytotoxicity rating SETVI” value ([17]; rate 63 g ai/ha) was 0. For the same molecule, the “phytotoxicity rating SETVI” value ([17]; rate 500 g ai/ha) was 20, the “phytotoxicity rating IPOHE” value ([18]; rate 63 g ai/ha) was 70 and the “phytotoxicity rating IPOHE” value ([18]; rate 500 g ai/ha) was 80. For the same molecule, the “phytotoxicity rating CHEAL” value ([19]; rate 63 g ai/ha) was 50, the “phytotoxicity rating CHEAL” value ([19]; rate 500 g ai/ha) was 80 and the “phytotoxicity rating DIGSA” value ([20]; rate 63 g ai/ha) was 50. The “phytotoxicity rating DIGSA” value ([20]; rate 500 g ai/ha) was 20, the “phytotoxicity rating AMARE” value ([21]; rate 63 g ai/ha) was 100 and the “phytotoxicity rating AMARE” value ([21]; rate 500 g ai/ha) was 100. For the same molecule, the “phytotoxicity rating ABUTH” value ([22]; rate 63 g ai/ha) was 95, the “phytotoxicity rating ABUTH” value ([22]; rate 500 g ai/ha) was 100 and the “crop damage rating CORN” value ([23]; rate 63 g ai/ha) was 10. The “crop damage rating CORN” value ([23]; rate 500 g ai/ha) was 10, the “crop damage rating RICE” value ([24]; rate 63 g ai/ha) was 20 and the “crop damage rating RICE” value ([24]; rate 500 g ai/ha) was 30. For the same molecule, the “crop damage rating SOY” value ([25]; rate 63 g ai/ha) was 0 and the “crop damage rating SOY” value ([25]; rate 500 g ai/ha) was 40.
